Reference: patent publication US20040023972A1, “Use of substituted imidazo[1,2-a]-pyridin-, -pyrimidin-and-pyrazin-3-yl-amine derivatives in the preparation of medicaments for inhibiting NOS” (Gruenenthal GmbH, priority 2000, published 2004)

Each molecule was assayed against T1, NO synthase (Rattus norvegicus, UniProt P29476) (assay: HTS-NOS assay (NOS assay): conversion of radioactive arginine, cation-exchanger filter plate). Conditions: 10 μM.
T1 construct: the supernatant was then removed by decantation and frozen in portions at −80° C; from tissue; host or cells: rat cerebellum, 20,000 g supernatant of homogenate
Assay type: biochemical
In short: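 Percent inhibition was derived by comparing remaining radioactive arginine with compound-free controls. Arginine retained on phosphate cation-exchanger filters was counted after citrulline washout, following a 5-60 min room-temperature (25 °C) reaction of labelled arginine, NADPH-containing medium and rat cerebellar homogenate supernatant.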

Row | SMILES | HTS-NOS assay: % inhibition (10 μM) [%]
1 | C#[N+]CCCCCCNc1c(-c2cccc3ccccc23)nc2cc(C)cc(C)n12 [Example 128, [6-(5,7-Dimethyl-2-naphthalen-1-yl-imidazo[1,2-a]pyridin-3-ylamino)-hexyl]-methylidyne-ammonium] | 63
2 | [C-]#[N+]CCCCCCNc1c(-c2cccc(O)c2)nc2c(C)cccn12 [Example 131, {6-[2-(3-Hydroxy-phenyl)-8-methyl-imidazo[1,2-a]pyridin-3-ylamino]-hexyl}-methylidyne-ammonium] | 55
3 | [C-]#[N+]CCCCCCNc1c(-c2ccccc2Br)nc2cc(C)ccn12 [Example 137, {6-[2-(2-Bromo-phenyl)-7-methyl-imidazo[1,2-a]pyridin-3-ylamino]-hexyl}-methylidyne-ammonium] | 52
4 | CC(=O)OCc1ccc(-c2nc3cc(C)cc(C)n3c2N(C(C)=O)C2CCCCC2)o1 [Example 158, acetic acid 5-[3-(acetyl-cyclohexyl-amino)-5,7-dimethyl-imidazo[1,2-a]pyridin-2-yl]-furan-2-yl methyl ester] | 54
5 | [C-]#[N+]CCCCCCN(C(C)=O)c1c(-c2ccco2)nc2cc(C)cc(C)n12 [Example 159, {6-[acetyl-(2-furan-2-yl-5,7-dimethyl-imidazo[1,2-a]pyridin-3-yl)-amino]-hexyl}-methylidyne-ammonium] | 61

Same assay, conditions: read-out: HTS-NOS assay: % inhibition (10 μM)

Row | SMILES | inhibition at 10 µM [%]
6 | Cc1ccc2nc(-c3cccnc3)c(NC(C)(C)C)n2c1 [Example 125, Tert-butyl-(6-methyl-2-pyridin-3-yl-imidazo[1,2-a]pyridin-3-yl)-amine] | 51
7 | Cc1ccn2c(NC(C)(C)CC(C)(C)C)c(-c3cccnc3)nc2n1 [Example 126, (7-Methyl-2-pyridin-3-yl-imidazo[1,2-a]-pyrimidin-3-yl)-(1,1,3,3-tetramethyl-butyl)-amine] | 50
8 | Cc1ccc2nc(-c3ccc(C(=O)O)s3)c(NC(C)(C)C)n2c1 [Example 127, 5-(3-Tert-butylamino-6-methyl-imidazo[1,2-a]pyridin-2-yl)-thiophene-2-carboxylic acid] | 52
9 | Cc1cc(C)n2c(Nc3c(C)cccc3C)c(-c3cccc(O)c3)nc2c1 [Example 129, 3-[3-(2,6-Dimethyl-phenylamino)-5,7-dimethyl-imidazo[1,2-a]pyridin-2-yl]-phenol] | 61
10 | Cc1ccccc1-c1nc2c(C)cccn2c1Nc1c(C)cccc1C [Example 130, (2,6-Dimethyl-phenyl)-(8-methyl-2-o-tolyl-imidazo[1,2-a]pyridin-3-yl)-amine] | 58
11 | Cc1ccn2c(Nc3c(C)cccc3C)c(-c3ccc(CO)o3)nc2n1 [Example 132, {5-[3-(2,6-Dimethyl-phenylamino)-7-methyl-imidazo[1,2-a]pyrimidin-2-yl]-furan-2-yl}-methanol] | 52
12 | Cc1ccc(-c2nc3c(C)cccn3c2NC(C)(C)CC(C)(C)C)cc1 [Example 133, (8-Methyl-2-p-tolyl-imidazo[1,2-a]pyridin-3-yl)-(1,1,3,3-tetramethyl-butyl)-amine] | 52
13 | Cc1ccc2nc(-c3ccc(Cl)cc3Cl)c(Nc3c(C)cccc3C)n2c1 [Example 134, [2-(2,4-Dichlorophenyl)-6-methyl-imidazo[1,2-a]pyridin-3-yl]-(2,6-dimethyl-phenyl)-amine] | 56
14 | CCCCNc1c(-c2ccc(Cl)cc2Cl)nc2ccc(C)cn12 [Example 135, Butyl-[2-(2,4-dichloro-phenyl)-6-methyl-imidazo[1,2-a]pyridin-3-yl]-amine] | 50
15 | CCCCNc1c(-c2ccc(N(C)C)c3ccccc23)nc2cnccn12 [Example 136, Butyl-[2-(4-dimethylamino-naphthalen-1-yl)-imidazo[1,2-a]pyrazin-3-yl]-amine] | 56
16 | CCCCNc1c(-c2ccccc2OC)nc2ccc(C)cn12 [Example 138, Butyl-[2-(2-methoxy-phenyl)-6-methyl-imidazo[1,2-a]pyridin-3-yl]-amine] | 52
17 | Cc1cccn2c(NC(C)(C)CC(C)(C)C)c(C3CCCCC3)nc12 [Example 139, (2-Cyclohexyl-8-methyl-imidazo[1,2-a]-pyridin-3-yl)-(1,1,3,3-tetramethyl-butyl)-amine] | 51
18 | Cc1ccn2c(NC3CCCCC3)c(-c3ccccn3)nc2c1 [Example 140, Cyclohexyl-(7-methyl-2-pyridin-2-yl-imidazo[1,2-a]pyridin-3-yl)-amine] | 55
19 | Cc1ccn2c(NC3CCCCC3)c(-c3ccco3)nc2c1 [Example 141, Cyclohexyl-(2-furan-2-yl-7-methyl-imidazo[1,2-a]pyridin-3-yl)-amine] | 64
20 | COC(=O)CNc1c(C2CCCCC2)nc2cc(C)cc(C)n12 [Example 142, (2-Cyclohexyl-5,7-dimethyl-imidazo[1,2-a]-pyridin-3-ylamino)-acetic acid methyl ester] | 59
21 | CC(=O)N(c1c(-c2ccco2)nc2cc(C)cc(C)n12)C(C)(C)CC(C)(C)C [Example 143, N-(2-furan-2-yl-5,7-dimethyl-imidazo[1,2-a]pyridin-3-yl)-N-(1,1,3,3-tetramethylbutyl)-acetamide] | 68
22 | CC(=O)N(c1c(-c2cccnc2)nc2cc(C)ccn12)C(C)(C)C [Example 144, N-tert-butyl-N-(7-methyl-2-pyridin-3-yl-imidazo[1,2-a]pyridin-3-yl)-acetamide] | 59

More lines, now with the values ahead:

Row | inhibition at 10 µM [%] | SMILES
23 | 66 | CC(=O)N(c1c(-c2ccco2)nc2cc(C)cc(C)n12)C(C)(C)C [Example 145, N-tert-butyl-N-(2-furan-2-yl-5,7-dimethyl-imidazo[1,2-a]pyridin-3-yl)-acetamide]
24 | 59 | CC(=O)N(c1c(-c2ccncc2)nc2cc(C)cc(C)n12)C(C)(C)CC(C)(C)C [Example 146, N-(5,7-dimethyl-2-pyridin-4-yl-imidazo[1,2-a]pyridin-3-yl)-N-(1,1,3,3-tetramethyl-butyl)-acetamide]
25 | 68 | CC(=O)N(c1c(-c2cccnc2)nc2cc(C)cc(C)n12)C(C)(C)CC(C)(C)C [Example 147, N-(5,7-dimethyl-2-pyridin-3-yl-imidazo[1,2-a]pyridin-3-yl)-N-(1,1,3,3-tetramethyl-butyl)-acetamide]
26 | 57 | CC(=O)N(c1c(C)cccc1C)c1c(-c2ccccc2C)nc2cc(C)cc(C)n12 [Example 148, N-(2,6-dimethyl-phenyl)-N-(5,7-dimethyl-2-o-tolyl-imidazo[1,2-a]pyridin-3-yl)-acetamide]
27 | 55 | CC(=O)N(c1c(-c2ccco2)nc2cc(C)ccn12)C(C)(C)CC(C)(C)C [Example 149, N-(2-furan-2-yl-7-methyl-imidazo[1,2-a]pyridin-3-yl)-N-(1,1,3,3-tetramethylbutyl)-acetamide]
28 | 60 | CC(=O)N(c1c(C)nc2cc(C)cc(C)n12)C(C)(C)CC(C)(C)C [Example 150, N-(1,1,3,3-tetramethyl-butyl)-N-(2,5,7-trimethyl-imidazo[1,2-a]pyridin-3-yl)-acetamide]
29 | 65 | CC(=O)N(c1c(-c2cccs2)nc2cc(C)ccn12)C1CCCCC1 [Example 151, N-cyclohexyl-N-(7-methyl-2-thiophen-2-yl-imidazo[1,2-a]pyridin-3-yl)-acetamide]
30 | 66 | CC(=O)N(c1c(C)nc2cc(C)cc(C)n12)C(C)(C)C [Example 152, N-tert-butyl-N-(2,5,7-trimethyl-imidazo[1,2-a]pyridin-3-yl)-acetamide]
31 | 78 | CC(=O)N(c1c(-c2ccc(C(=O)O)s2)nc2cnccn12)C(C)(C)C [Example 153, 5-[3-(acetyl-tert-butyl-amino)-imidazo[1,2-a]pyrazin-2-yl]-thiophene-2-carboxylic acid]
32 | 60 | CC(=O)N(c1c(-c2ccc(C(=O)O)o2)nc2cc(C)cc(C)n12)C(C)(C)CC(C)(C)C [Example 154, 5-{3-[acetyl-(1,1,3,3-tetramethyl-butyl)-amino]-5,7-dimethyl-imidazo[1,2-a]-pyridin-2-yl}-furan-2-carboxylic acid]
33 | 50 | CC(=O)N(c1c(-c2ccc(CO)o2)nc2cc(C)cc(C)n12)C(C)(C)CC(C)(C)C [Example 155, N-[2-(5-hydroxymethyl-furan-2-yl)-5,7-dimethyl-imidazo[1,2-a]pyridin-3-yl]-N-(1,1,3,3-tetramethyl-butyl)-acetamide]
34 | 74 | CC(=O)N(c1c(C)cccc1C)c1c(-c2sccc2Br)nc2cc(C)cc(C)n12 [Example 156, N-[2-(3-bromo-thiophen-2-yl)-5,7-dimethyl-imidazo[1,2-a]pyridin-3-yl]-N-(2,6-dimethyl-phenyl)-acetamide]
35 | 63 | CC(=O)N(c1c(C2CCCCC2)nc2cc(C)cc(C)n12)C(C)(C)C [Example 157, N-tert-butyl-N-(2-cyclohexyl-5,7-dimethyl-imidazo[1,2-a]pyridin-3-yl)-acetamide]
36 | 55 | CC(=O)N(c1c(C)cccc1C)c1c(-c2cccc(Cl)c2Cl)nc2cc(C)ccn12 [Example 160, N-[2-(2,3-dichloro-phenyl)-7-methyl-imidazo[1,2-a]pyridin-3-yl]-N-(2,6-dimethyl-phenyl)-acetamide]
37 | 51 | CC(=O)N(c1c(-c2sccc2Br)nc2ccccn12)C1CCCCC1 [Example 161, N-[2-(3-bromo-thiophen-2-yl)-imidazo[1,2-a]pyridin-3-yl]-N-cyclohexyl-acetamide]
38 | 67 | CC(=O)N(c1c(-c2ccc(C)cc2)nc2cc(C)cc(C)n12)C(C)(C)CC(C)(C)C [Example 162, N-(5,7-dimethyl-2-p-tolyl-imidazo[1,2-a]pyridin-3-yl)-N-(1,1,3,3-tetramethylbutyl)-acetamide]
39 | 63 | CC(=O)N(c1c(-c2ccncc2)nc2cc(C)ccn12)C1CCCCC1 [Example 163, N-cyclohexyl-N-(7-methyl-2-pyridin-4-yl-imidazo[1,2-a]pyridin-3-yl)-acetamide]
